Laboratory results published in PMC6352951, “Computationally driven discovery of phenyl(piperazin-1-yl)methanone derivatives as reversible monoacylglycerol lipase (MAGL) inhibitors” (Journal of Enzyme Inhibition and Medicinal Chemistry, 2019).
Where two headings read alike, the source gives them in different places. Each block holds one compound with its values, some of them ahead of it.

How the values were obtained:
[1] = tested on: ovarian CAOV3 cancer cells; assay: Cell viability assay; type: cell-based, human; conditions: 96 h, mean ± SD
Experimental: (§1) Human breast MDA-MB-231, colorectal HCT116 and ovarian CAOV3, OVCAR3, and SKOV3 cancer cells (from ATCC) were maintained at 37 °C in a humidified atmosphere containing 5% CO2 according to the supplier. Cells (5 × 10^2) were plated in 96-well culture plates. The day after seeding, vehicle or compounds were added at different concentrations to the medium. Compounds were added to the cell culture at a concentration ranging from 200 to 0.02 μM. Cell viability was measured after 96 h according to the supplier (Promega, cat. n° G7571) with a Tecan M1000 PRO instrument. IC50 values were calculated from logistical dose-response curves. Averages were obtained from triplicates and error bars are standard deviations.

[2] = tested on: colorectal HCT116 cancer cells; assay: Cell viability assay; type: cell-based, human; conditions: 96 h, mean ± SD
Experimental: as §1

[3] = tested on: ovarian OVCAR3 cancer cells; assay: Cell viability assay; type: cell-based, human; conditions: 96 h, mean ± SD
Experimental: as §1

[4] = tested on: breast MDA-MB-231 cancer cells; assay: Cell viability assay; type: cell-based, human; conditions: 96 h, mean ± SD
Experimental: as §1

[5] = tested on: ovarian SKOV3 cancer cells; assay: Cell viability assay; type: cell-based, human; conditions: 96 h, mean ± SD
Experimental: as §1

[6] = tested on: MDA-MB-231, HCT116, CAOV3, OVCAR3 and SKOV3 cancer cells; assay: Cell viability assay, range over all tested cell lines; type: cell-based; conditions: Homo sapiens, 96 h
Experimental: as §1

Human recombinant MAGL = target: T1, Human recombinant MAGL (Homo sapiens, UniProt Q99685); assay: MAGL inhibition assay (4-NPA substrate, absorbance at 405 nm); type: biochemical
T1 construct: purchased Cayman Chemical
T1 sequence (Q99685 1-303): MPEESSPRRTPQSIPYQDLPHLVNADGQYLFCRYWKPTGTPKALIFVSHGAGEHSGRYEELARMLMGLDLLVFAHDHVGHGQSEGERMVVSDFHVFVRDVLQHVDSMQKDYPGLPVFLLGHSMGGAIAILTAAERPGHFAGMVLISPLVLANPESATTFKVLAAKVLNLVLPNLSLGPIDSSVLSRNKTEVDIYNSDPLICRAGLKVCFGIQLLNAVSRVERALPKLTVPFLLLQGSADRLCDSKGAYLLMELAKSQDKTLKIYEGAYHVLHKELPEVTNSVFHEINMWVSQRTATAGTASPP
Experimental: Compounds 1–3 were purchased from ChemBridge corporation, whereas compounds 4 and 5 were synthesized. Human recombinant MAGL, 4-nitrophenyl acetate substrate (4-NPA) and CAY10499 were purchased from Cayman Chemical. The IC50 values were generated in 96-well microtiter plates. The MAGL reaction was conducted at rt at a final volume of 200 µL in […] Tris buffer, pH 7.2, containing […] EDTA. A total of 150 µL of 4-NPA 133.3 µM was added to 10 µL of DMSO containing the appropriate amount of compound. The reaction was initiated by the addition of 40 µL of MAGL (11 ng/well) in such a way that the assay was linear over 30 min. The final concentration of the analyzed compounds ranged from 10 to 0.00001 µM for CAY10499 and from 200 to 0.0128 µM for the other compounds. After the reaction had proceeded for 30 min, absorbance values were then measured by using a VictorX3 PerkinElmer instrument at 405 nm. Two reactions were also run: one reaction containing no compounds and the second one containing neither inhibitor nor enzyme. To remove possible false positive results, a blank analysis was carried out for each compound concentration and the final absorbance results were obtained detracting the absorbance produced by the presence of all the components except MAGL in the same conditions.

[7] = 30 min reaction, no DTT, read-out: MAGL inhibition IC50

IC50 ([1]; Homo sapiens, Caov-3): 51 ± 3 µM
IC50 ([2]; Homo sapiens, HCT-116): 48 ± 2 µM
IC50 ([3]; Homo sapiens, OVCAR-3): 72 ± 4 µM
IC50 ([4]; Homo sapiens, MDA-MB-231): 59 ± 5 µM
IC50 ([5]; Homo sapiens, SK-OV-3): 31 ± 2 µM
IC50 [6]: 31 to 72 µM
IC50 (Human recombinant MAGL; [7]): 6.1 µM
IC50 (Human recombinant MAGL; in the presence of 10 μM DTT, read-out: MAGL inhibition IC50 in the presence of DTT): 6.2 µM
Fold improvement of MAGL inhibition activity with respect to compound 1 (Human recombinant MAGL; ratio of IC50 values vs compound 1): 4 fold
Fold higher MAGL inhibition activity than compound 5 (Human recombinant MAGL; ratio of IC50 values vs compound 5): 5 fold
Structure (SMILES): O=C(c1ccc(-c2cccc3ccc(O)cc23)cc1)N1CCN(c2cccc(Cl)c2)CC1 [compound 4]
Effect of preincubation time on MAGL inhibitory potency (reversibility) (Human recombinant MAGL; preincubated with the enzyme for 0, 30 and 60 min before adding substrate): did not show any significant increase in inhibitory potency at longer incubation times

Structure (SMILES): O=C(c1ccc(-c2ccccc2)cc1)N1CCN(c2cccc(Cl)c2)CC1 [compound 1]
IC50 (Human recombinant MAGL; [7]): 23.3 µM

IC50 [1]: 90 ± 6 µM
IC50 [2]: 45 ± 3 µM
IC50 [3]: 52 ± 3 µM
IC50 [4]: 82 ± 5 µM
IC50 [5]: 38 ± 4 µM
Structure (SMILES): COc1nn(-c2ccc(NC(=O)OCc3ccccc3)c(C)c2)c(=O)o1 [CAY10499, reference compound]

IC50 (Human recombinant MAGL; [7]): 31.9 µM
Structure (SMILES): O=C(c1ccc(-c2ccccc2)cc1)N1CCN(c2cccc3ccc(O)cc23)CC1 [compound 5]
